Test results as given in patent US12091411B2, “IRAK degraders and uses thereof” (Kymera Therapeutics, Inc., priority 2022, dated 2024).
Read-outs that look alike come from different tables or passages of the source.

Target: T1, IRAK4 (Homo sapiens, UniProt Q9NWZ3)
T1 construct: Degradation of IRAK4 in OCI-LY10 was quantitatively measured using Meso Scale Discovery technology; endogenous in cells; host or cells: OCI-LY10
T1 sequence (Q9NWZ3 1-460): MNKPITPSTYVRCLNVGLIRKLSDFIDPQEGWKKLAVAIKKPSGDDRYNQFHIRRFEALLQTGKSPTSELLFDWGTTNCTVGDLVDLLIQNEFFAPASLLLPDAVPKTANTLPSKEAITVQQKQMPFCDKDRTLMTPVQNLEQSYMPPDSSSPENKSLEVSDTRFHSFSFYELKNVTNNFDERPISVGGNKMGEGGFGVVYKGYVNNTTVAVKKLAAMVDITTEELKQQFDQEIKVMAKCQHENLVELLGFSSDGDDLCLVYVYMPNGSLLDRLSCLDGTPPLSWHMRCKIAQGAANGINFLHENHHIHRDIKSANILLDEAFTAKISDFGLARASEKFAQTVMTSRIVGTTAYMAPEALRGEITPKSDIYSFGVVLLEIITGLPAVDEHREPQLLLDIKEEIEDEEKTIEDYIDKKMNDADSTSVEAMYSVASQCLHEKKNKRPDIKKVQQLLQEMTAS
Assay: IRAK4 MSD Degradation in OCI-LY10
Assay type: cell-based
Settings: OCI-LY10 cells, MSD
Method in brief: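 OCI-LY10 cells exposed to 8-point 1:3 compound series (top 1 to 10 μM) for 4 to 24 h at 37 °C, 5% CO2. Lysate IRAK4 quantified by MSD sandwich immunoassay. DC50 from three-parameter logistic fit, binned A (<0.01 μM) to D (>0.2 μM or not tested).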

[1] = 4 hrs incubation, read-out: IRAK4 degradation in OCI-LY10 at 4 hrs: DC50
[2] = 24 hrs incubation, read-out: IRAK4 degradation in OCI-LY10 at 24 hrs: DC50

Row | Structure (SMILES) | DC50 [1] [nM] | DC50 [2] [nM]
1 | COc1nc([C@H]2CC[C@H](CN3CCC(OCC#Cc4cccc5c4n(C)c(=O)n5C4CCC(=O)NC4=O)CC3)CC2)ccc1NC(=O)c1cnn2ccc(N3C[C@H]4C[C@@H]3CO4)nc12 (stereo partly drawn) [I-183] | > 200 | > 200
2 | COc1cc([C@H]2CC[C@H](CN3CCC(OCC#Cc4cccc5c4n(C)c(=O)n5C4CCC(=O)NC4=O)CC3)CC2)ccc1NC(=O)c1cnn2ccc(N3C[C@H]4C[C@@H]3CO4)nc12 (stereo partly drawn) [I-184] | > 200 | > 200
3 | COc1cc2nn([C@H]3CC[C@H](CN4CCC5(CC4)CCN(c4cccc6c4n(C)c(=O)n6C4CCC(=O)NC4=O)CC5)CC3)cc2cc1NC(=O)c1cncc(C(C)(C)C#N)c1 (stereo partly drawn) [I-185] | > 200 | > 200
4 | Cn1c(=O)n(C2CCC(=O)NC2=O)c2cccc(N3CCC4(CCN(C[C@H]5CC[C@H](n6cc7cc(NC(=O)c8cncc(C#N)c8)c(F)cc7n6)CC5)CC4)CC3)c21 (stereo partly drawn) [I-186] | > 200 | > 200
5 | Cn1c(=O)n(C2CCC(=O)NC2=O)c2cccc(N3CCC4(CCN(C[C@H]5CC[C@H](n6cc7cc(NC(=O)c8cncc(C#N)c8)c(C(F)F)cc7n6)CC5)CC4)CC3)c21 (stereo partly drawn) [I-187] | > 200 | > 200
6 | Cn1c(=O)n(C2CCC(=O)NC2=O)c2cccc(N3CCC4(CCN(C[C@H]5CC[C@@H](n6cc(NC(=O)c7cnn8ccc(N9CC%10C[C@@H]9CO%10)nc78)c(C(F)F)n6)CC5)CC4)CC3)c21 (stereo partly drawn) [I-188] | < 10 | > 200
7 | Cn1c(=O)n(C2CCC(=O)NC2=O)c2cccc(N3CCN(CC4CCC(n5cc(NC(=O)c6cnn7ccc(N8CC9C[C@@H]8CO9)nc67)c(C(F)F)n5)CC4)CC3)c21 (stereo partly drawn) [I-189] | 10 to 100 | > 200
8 | Cn1c(=O)n(C2CCC(=O)NC2=O)c2cccc(CN3CCN(C[C@H]4CC[C@H](n5cc(NC(=O)c6cnn7ccc(N8CC9C[C@@H]8CO9)nc67)c(C(F)F)n5)CC4)CC3)c21 (stereo partly drawn) [I-190] | 10 to 100 | > 200
9 | COCc1cncc(C(=O)Nc2cc3cn([C@H]4CC[C@H](CN5CCC6(CC5)CCN(c5cccc7c5n(C)c(=O)n7C5CCC(=O)NC5=O)CC6)CC4)nc3cc2OC)c1 (stereo partly drawn) [I-191] | 10 to 100 | > 200
10 | CC([C@H]1CC[C@H](n2cc(NC(=O)c3cnn4ccc(C5CC6C[C@@H]5CO6)nc34)c(C(F)F)n2)CC1)N1CCC(OCC#Cc2cccc3c2n(C)c(=O)n3C2CCC(=O)NC2=O)CC1 (stereo partly drawn) [I-192] | > 200 | > 200
11 | Cn1c(=O)n(C2CCC(=O)NC2=O)c2cccc(C#CCOC3CCN(C(C#N)[C@H]4CC[C@H](n5cc(NC(=O)c6cnn7ccc(N8C[C@H]9C[C@@H]8CO9)nc67)c(C(F)F)n5)CC4)CC3)c21 (stereo partly drawn) [I-193, N-[1-[4-[cyano-[4-[3-[1-(2,6-dioxo-3-piperidyl)-3-methyl-2-oxo-benzimidazol-4-yl]prop-2-ynoxy]-1-piperidyl]methyl]cyclohexyl]-3-(difluoromethyl)pyrazol-4-yl]-5-[(1R,4R)-2-oxa-5-azabicyclo[2.2.1]heptan-5-yl]pyrazolo[1,5-a]pyrimidine-3-carboxamide] | > 200 | > 200
12 | CC([C@H]1CC[C@H](n2cc(NC(=O)c3cnn4ccc(N5C[C@H]6C[C@@H]5CO6)nc34)c(C(F)F)n2)CC1)N1CCN(CC#Cc2cccc3c2n(C)c(=O)n3C2CCC(=O)NC2=O)CC1 (stereo partly drawn) [I-194] | > 200 | > 200
13 | CC([C@H]1CC[C@H](n2cc(NC(=O)c3cnn4ccc(N5C[C@H]6C[C@@H]5CO6)nc34)c(C(F)F)n2)CC1)N1CCN(CCCc2cccc3c2n(C)c(=O)n3C2CCC(=O)NC2=O)CC1 (stereo partly drawn) [I-195] | > 200 | > 200
14 | Cn1c(=O)n(C2CCC(=O)NC2=O)c2cccc(C#CCN3CCN(C(C#N)[C@H]4CC[C@H](n5cc(NC(=O)c6cnn7ccc(N8C[C@H]9C[C@@H]8CO9)nc67)c(C(F)F)n5)CC4)CC3)c21 (stereo partly drawn) [I-196] | > 200 | 10 to 100
15 | Cn1c(=O)n(C2CCC(=O)NC2=O)c2cccc(CCCN3CCN(C(C#N)[C@H]4CC[C@H](n5cc(NC(=O)c6cnn7ccc(N8C[C@H]9C[C@@H]8CO9)nc67)c(C(F)F)n5)CC4)CC3)c21 (stereo partly drawn) [I-197] | 10 to 100 | > 200
16 | O=C1CCC(c2ccc(C#CCOC3CCN(C[C@H]4CC[C@H](n5cc(NC(=O)c6cnn7ccc(N8C[C@H]9C[C@@H]8CO9)nc67)c(C(F)F)n5)CC4)CC3)cc2)C(=O)N1 (stereo partly drawn) [I-198] | 10 to 100 | 10 to 100
17 | O=C1CCC(c2cccc(C#CCOC3CCN(C[C@H]4CC[C@H](n5cc(NC(=O)c6cnn7ccc(N8C[C@H]9C[C@@H]8CO9)nc67)c(C(F)F)n5)CC4)CC3)c2)C(=O)N1 (stereo partly drawn) [I-199] | > 200 | 10 to 100
18 | Cn1c(=O)n(C2CCC(=O)NC2=O)c2cccc(N3CCN([C@H]4CC[C@H](n5cc(NC(=O)c6cnn7ccc(N8C[C@H]9C[C@@H]8CO9)nc67)c(C(F)F)n5)CC4)CC3)c21 (stereo partly drawn) [I-200] | 10 to 100 | > 200

Row | Structure (SMILES) | DC50 [1] [nM] | DC50 [2] [nM]
19 | Cn1c(=O)n(C2CCC(=O)NC2=O)c2cccc(C3CCN(C4CCN([C@H]5CC[C@H](n6cc(NC(=O)c7cnn8ccc(N9C[C@H]%10C[C@@H]9CO%10)nc78)c(C(F)F)n6)CC5)CC4)CC3)c21 (stereo partly drawn) [I-202] | < 10 | > 200
20 | Cn1c(=O)n(C2CCC(=O)NC2=O)c2cccc(N3CCC(N4CCN([C@H]5CC[C@H](n6cc(NC(=O)c7cnn8ccc(N9C[C@H]%10C[C@@H]9CO%10)nc78)c(C(F)F)n6)CC5)CC4)CC3)c21 (stereo partly drawn) [I-203] | > 200 | > 200
21 | COc1cc2nc([C@H]3CC[C@H](CN4CCC5(CC4)CCN(c4cccc6c4n(C)c(=O)n6C4CCC(=O)NC4=O)CC5)CC3)ccc2cc1NC(=O)c1cncc(C#N)c1 (stereo partly drawn) [I-204] | < 10 | > 200
22 | Cn1c(=O)n(C2CCC(=O)NC2=O)c2cccc(C#CCOC3CCN(C[C@H]4CC[C@H](c5nc(C(F)F)c(NC(=O)c6cnn7ccc(N8C[C@H]9C[C@@H]8CO9)nc67)s5)CC4)CC3)c21 (stereo partly drawn) [I-205] | > 200 | > 200
23 | Cn1c(=O)n(C2CCC(=O)NC2=O)c2cccc(C#CCOC3CCN(C[C@H]4CC[C@H](c5nc(C(F)F)c(NC(=O)c6cnn7ccc(N8C[C@H]9C[C@@H]8CO9)nc67)o5)CC4)CC3)c21 (stereo partly drawn) [I-206] | > 200 | > 200
24 | Cn1c(=O)n(C2CCC(=O)NC2=O)c2cccc(C#CCOC3CCN(CC4CCN(c5nc(C(F)F)c(NC(=O)c6cnn7ccc(N8C[C@H]9C[C@@H]8CO9)nc67)s5)CC4)CC3)c21 (stereo partly drawn) [I-207] | > 200 | > 200
25 | Cn1c(=O)n(C2CCC(=O)NC2=O)c2cccc(C#CCOC3CCN(CC4CCN(c5nc(C(F)F)c(NC(=O)c6cnn7ccc(N8C[C@H]9C[C@@H]8CO9)nc67)o5)CC4)CC3)c21 (stereo partly drawn) [I-208] | > 200 | > 200
26 | O=C1CCN(c2cccc(C#CCOC3CCN(C[C@H]4CC[C@H](n5cc(NC(=O)c6cnn7ccc(N8C[C@H]9C[C@@H]8CO9)nc67)c(C(F)F)n5)CC4)CC3)c2)C(=O)N1 [I-209] | > 200 | > 200
27 | Cn1c(=O)n(C2CCC(=O)NC2=O)c2cccc(C#CCOC3CCN(C[C@H]4CC[C@H](n5cc(NC(=O)c6cccc(C(F)(F)F)n6)c(C(F)F)n5)CC4)CC3)c21 (stereo partly drawn) [I-210] | > 200 | > 200
28 | Cn1c(=O)n(C2CCC(=O)NC2=O)c2cccc(C#CCN3CCN(C[C@H]4CC[C@H](n5cc(NC(=O)c6cccc(C(F)(F)F)n6)c(C(F)F)n5)CC4)CC3)c21 (stereo partly drawn) [I-211] | > 200 | > 200
29 | Cn1c(=O)n(C2CCC(=O)NC2=O)c2cccc(CCCOC3CCN(C[C@H]4CC[C@H](n5cc(NC(=O)c6cccc(C(F)(F)F)n6)c(C(F)F)n5)CC4)CC3)c21 (stereo partly drawn) [I-212] | > 200 | > 200
30 | Cn1c(=O)n(C2CCC(=O)NC2=O)c2cccc(CCCN3CCN(C[C@H]4CC[C@H](n5cc(NC(=O)c6cccc(C(F)(F)F)n6)c(C(F)F)n5)CC4)CC3)c21 (stereo partly drawn) [I-213] | > 200 | > 200
31 | COc1nn([C@H]2CC[C@H](CN3CC4CC3CN4c3cccc4c3n(C)c(=O)n4C3CCC(=O)NC3=O)CC2)cc1NC(=O)c1cnn2cc(N(C)C)cnc12 (stereo partly drawn) [I-214] | > 200 | > 200
32 | CN(C)c1cnc2c(C(=O)Nc3cn([C@H]4CC[C@H](CN5CCN(c6cccc7c6n(C)c(=O)n7C6CCC(=O)NC6=O)CC5)CC4)nc3F)cnn2c1 (stereo partly drawn) [I-215] | > 200 | > 200
33 | Cc1nn([C@H]2CC[C@H](CN3CCN(c4cccc5c4n(C)c(=O)n5C4CCC(=O)NC4=O)CC3)CC2)cc1NC(=O)c1cnn2cc(N(C)C)cnc12 (stereo partly drawn) [I-216] | > 200 | > 200
34 | Cc1nn([C@H]2CC[C@H](CN3CCN(c4ccc5c(c4)n(C)c(=O)n5C4CCC(=O)NC4=O)CC3)CC2)cc1NC(=O)c1cnn2cc(N(C)C)cnc12 (stereo partly drawn) [I-217] | > 200 | > 200
35 | O=C1CCN(c2ccc(C#CCOC3CCN(C[C@H]4CC[C@H](n5cc(NC(=O)c6cnn7ccc(N8C[C@H]9C[C@@H]8CO9)nc67)c(C(F)F)n5)CC4)CC3)cc2)C(=O)N1 [I-218] | 100 to 200 | > 200
36 | Cn1c(=O)n(C2CCC(=O)NC2=O)c2cccc(C#CCN3CCN(C[C@H]4CC[C@H](n5cc(NC(=O)c6cnn7ccc(C(C)(C)C)nc67)c(C(F)F)n5)CC4)CC3)c21 (stereo partly drawn) [I-219] | > 200 | > 200
